The results in this text go back to patent US20160045505A1, “COMPOUNDS AND COMPOSITIONS FOR THE TREATMENT OF PARASITIC DISEASES” (NOVARTIS AG, priority 2013, published 2016).

Usually EC50 stands for the concentration needed to bring the measured effect to its halfway point.

Assay [1] deals with L. donovani HU3 strain in mouse peritoneal macrophages. Nature of the assay: Assay for proliferation of Leishmania parasites in infected mouse peritoneal macrophages (SybrGreen staining, high-content imaging, 5 days). It counts as cell-based, Leishmania donovani. Particulars: Leishmania donovani, Peritoneal macrophage, L. donovani in mouse peritoneal macrophages, read-out: L. donovani Macrophage EC50.

Assay [2] has as its system Trypanosoma brucei Lister 427 strain, bloodstream form. Nature of the assay: Assay for proliferation of kinetoplastid parasite Trypanosoma brucei (Cell Titer Glo, 48 hours). In kind it is cell-based. Conditions: Trypanosoma brucei, T. brucei Lister 427 bloodstream form, read-out: T. brucei EC50. The method, boiled down: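 Bloodstream-form T. brucei Lister 427 in HMI-9 medium was exposed to compound (DMSO vehicle) for 48 hours at 37° C, 5% CO2. Parasite growth was read as ATP by CellTiter-Glo luminescence, with EC50 calculated from percent inhibition.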
A general note: Cellular ATP, detected with luciferase, serves as a proxy for viable cell number.

Assay [3] concerns Leishmania donovani axenic amastigote parasites. Nature of the assay: Leishmania donovani axenic amastigote proliferation assay (Cell TiterGlo luminescence, 2 day incubation). In kind it is cell-based. Conditions: Leishmania donovani, read-out: L. donovani amastigotes EC50.
The subject of assay [4] is Trypanosoma cruzi amastigotes (Tulahuen strain expressing Lac-Z) cultured in 3T3 fibroblast cells. Put plainly: microbe, parasite or virus in culture. Particulars: Trypanosoma cruzi, TULAHUEN, Fibroblast, T. cruzi amastigotes in 3T3 fibroblast cells, read-out: T cruzi EC50. It counts as cell-based.
Where [5] appears, read: axenic amastigotes, inhibition of proliferation.

Structures are written as SMILES. Read-outs that look alike come from different tables or passages of the source. Where only a bound is given, the exact number is not on record here.

For the compound `CC(C)OC(=O)Nc1cnc2nc(-c3cc(Nc4ncccc4C(F)(F)F)ccc3F)cn2c1` [Compound 485], the EC50 in assay [1] was 11500 nM; in assay [2] it was greater than 50000 nM; in assay [3] (L. donovani axenic amastigotes) it was greater than 25000 nM; in assay [4] it was 1970 nM.
`CNCCc1ccc(-c2cnc3nc(-c4cc(NC(=O)c5oc(C)nc5C)ccc4F)cn3c2)cc1` [Compound 451]: the EC50 in assay [1] was 1930 nM; in assay [2] it was 968 nM; in assay [3] (L. donovani axenic amastigotes), 6470 nM; in assay [4], 1950 nM.
For `CC(C)OC(=O)Nc1cnc2nc(-c3cc(NC(=O)C(C)N)ccc3F)cn2c1` (stereo not shown) [Compound 87], the EC50 in assay [1] (inhibition of proliferation) was greater than 43700 nM; in assay [2] (inhibition of proliferation), greater than 50000 nM; in assay [3] (setting [5]) it was greater than 25000 nM; in assay [4] (inhibition of proliferation), greater than 20000 nM.
On the same counts, the results for `CC1(C(=O)Nc2cnc3nc(-c4cc(NC(=O)N5CCCC5)ccc4F)cn3c2)CCCCO1` (stereo not shown) [Compound 136] are 1420 nM, 157 nM, 392 nM and greater than 20000 nM.
`Cc1ncc(C(=O)Nc2ccc(F)c(-c3cn4cc(C5CCC5)cnc4n3)c2)o1` [Compound 211]: the EC50 in assay [1] (inhibition of proliferation) was determined as 55 nM; in assay [2] (inhibition of proliferation) it was 29 nM; in assay [3] (setting [5]), 21 nM; in assay [4] (inhibition of proliferation) it was 16 nM.
Turning to `O=C(Nc1ccc(F)c(-c2cn3cc(F)cnc3n2)c1)N1CC(F)C1` [Compound 231], the EC50 was 1720 nM in assay [1] (inhibition of proliferation), 313 nM in assay [2] (inhibition of proliferation), 307 nM in assay [3] (setting [5]) and 420 nM in assay [4] (inhibition of proliferation).
In the same order, the values of `Cc1nc(C)c(C(=O)Nc2ccc(F)c(-c3cn4cc(NC(=O)C5CCC(=O)O5)cnc4n3)c2)o1` (stereo not shown) [Compound 156] are greater than 50000 nM, 10600 nM, 3880 nM and greater than 20000 nM.
Take `CC(C)(C)OC(=O)N[C@H]1CC[C@H](CNc2cnc3nc(-c4cc(NC(=O)N5CCCC5)ccc4F)cn3c2)CC1` [Compound 477]: the EC50 in assay [1] is 425 nM; in assay [2], 55 nM; in assay [3] (L. donovani axenic amastigotes), 751 nM; in assay [4], 386 nM.
In the same order, the values of `CC(C)OC(=O)Nc1ccc(F)c(-c2cn3cc(-c4cccnc4)cnc3n2)c1` [Compound 399] are 646 nM, 103 nM, 274 nM and 80 nM.
On to `CC(C)OC(=O)Nc1cnc2nc(-c3cc(NC(=O)c4ccc(Cl)o4)ccc3Cl)cn2c1` [Compound 44], for which the EC50 worked out at 193 nM in assay [1] (inhibition of proliferation), 39 nM in assay [2] (inhibition of proliferation), 121 nM in assay [3] (setting [5]) and 47 nM in assay [4] (inhibition of proliferation).
In the same order, the values of `CC(=O)c1ccc(C(=O)Nc2ccc(F)c(-c3cn4cc(NC(=O)OC(C)C)cnc4n3)c2)s1` [Compound 83] are 6810 nM, greater than 50000 nM, 15400 nM and 7040 nM.
As for `O=C(Nc1ccc(F)c(-c2cn3cc(NCCC(F)(F)F)cnc3n2)c1)N1CCCC1` [Compound 478], the EC50 is greater than 16400 nM in assay [1], 533 nM in assay [2], 4720 nM in assay [3] (L. donovani axenic amastigotes) and 5520 nM in assay [4].
For `Cc1nc(C)c(C(=O)Nc2ccc(F)c(-c3cn4cc(C5=CCCCO5)cnc4n3)c2)o1` [Compound 373], the EC50 in assay [1] came to 134 nM; in assay [2], 44 nM; in assay [3] (L. donovani axenic amastigotes), 115 nM; in assay [4] it was 84 nM.
Turning to `Cc1nc(C)c(C(=O)Nc2ccc(F)c(-c3nc4ncc(-c5ccccc5)cn4c3F)c2)o1` [Compound 338], the EC50 was determined as 101 nM in assay [1] (inhibition of proliferation), 40 nM in assay [2] (inhibition of proliferation), 47 nM in assay [3] (setting [5]) and 18 nM in assay [4] (inhibition of proliferation).
For `Cc1nc(C)c(C(=O)Nc2ccc(F)c(-c3cn4cc(C#CCCN5CCN(C)CC5)cnc4n3)c2)o1` [Compound 546], the EC50 in assay [1] worked out at 30200 nM; in assay [2], 3180 nM; in assay [3] (L. donovani axenic amastigotes) it was 5660 nM; in assay [4], 3850 nM.
Regarding `CCC(C)Nc1cnc2nc(-c3cc(NC(=O)c4oc(C)nc4C)ccc3F)cn2c1` (stereo not shown) [Compound 464], the EC50 is 672 nM in assay [1], 109 nM in assay [2], 470 nM in assay [3] (L. donovani axenic amastigotes) and 148 nM in assay [4].
On the same counts, the results for `Cc1nc(C)c(C(=O)Nc2ccc(F)c(-c3cn4cc(-c5cnn(CCN6CCOCC6)c5)cnc4n3)c2)o1` [Compound 388] are 2950 nM, 415 nM, 1010 nM and 3530 nM.
On to `CN(C)C(=O)Nc1ccc(F)c(-c2cn3cc(C(F)F)cnc3n2)c1` [Compound 239], for which the EC50 amounted to 2200 nM in assay [1] (inhibition of proliferation), 350 nM in assay [2] (inhibition of proliferation), 515 nM in assay [3] (setting [5]) and 372 nM in assay [4] (inhibition of proliferation).
In the same order, the values of `Cc1nc(C)c(C(=O)Nc2ccc(F)c(-c3cn4cc(NC(=O)C5CCCO5)cnc4n3)c2)o1` (stereo not shown) [Compound 149] are 617 nM, 516 nM, 241 nM and 1880 nM.
In the case of `CC(C)OC(=O)Nc1cnc2nc(-c3cc(NC(=O)c4c[nH]cn4)ccc3F)cn2c1` [Compound 81], the EC50 in assay [1] (inhibition of proliferation) was greater than 50000 nM; in assay [2] (inhibition of proliferation), greater than 50000 nM; in assay [3] (setting [5]) it was greater than 25000 nM; in assay [4] (inhibition of proliferation), greater than 20000 nM.
Consider `Cc1nc(C)c(C(=O)Nc2ccc(Cl)c(-c3cn4cc(NC(=O)OC(C)C)cnc4n3)c2)o1` [Compound 45], for which the EC50 in assay [1] (inhibition of proliferation) came to 452 nM; in assay [2] (inhibition of proliferation) it was 522 nM; in assay [3] (setting [5]), 226 nM; in assay [4] (inhibition of proliferation), 400 nM.
On to `CC(C)OC(=O)Nc1cnc2nc(-c3cc(NC(=O)C4CC(=O)C4)ccc3F)cn2c1` [Compound 101], for which the EC50 in assay [1] (inhibition of proliferation) worked out at 2520 nM; in assay [2] (inhibition of proliferation), 3490 nM; in assay [3] (setting [5]) it was 636 nM; in assay [4] (inhibition of proliferation), 9950 nM.
On the same counts, the results for `Cc1n[nH]c(C(=O)Nc2cnc3nc(-c4cc(NC(=O)c5oc(C)nc5C)ccc4F)cn3c2)n1` [Compound 171] are greater than 50000 nM, 1410 nM, 1540 nM and greater than 20000 nM.
Take `Cc1nc(C)c(C(=O)Nc2ccc(F)c(-c3cn4cc(NC(=O)OC5(C)CC5)cnc4n3)c2)o1` [Compound 312]: the EC50 in assay [1] (inhibition of proliferation) was found to be 139 nM; in assay [2] (inhibition of proliferation), 54 nM; in assay [3] (setting [5]), 120 nM; in assay [4] (inhibition of proliferation), 441 nM.
Take `Cc1nc(C)c(C(=O)Nc2ccc(F)c(-c3cn4cc(NC5=N[C@H]6CCCC[C@@H]6O5)cnc4n3)c2)o1` [Compound 510]: the EC50 stood at 8130 nM in assay [1], 4010 nM in assay [2], 1600 nM in assay [3] (L. donovani axenic amastigotes) and 2610 nM in assay [4].
Consider `COCCOCC(=O)Nc1cnc2nc(-c3cc(NC(=O)N4CCCC4)ccc3F)cn2c1` [Compound 137], for which the EC50 in assay [1] (inhibition of proliferation) stood at 24800 nM; in assay [2] (inhibition of proliferation) it was 406 nM; in assay [3] (setting [5]), 2150 nM; in assay [4] (inhibition of proliferation) it was 8010 nM.
In the case of `CCN(CC)c1cnc2nc(-c3cc(NC(=O)c4oc(C)nc4C)ccc3F)cn2c1` [Compound 471], the EC50 was 637 nM in assay [1], 159 nM in assay [2], 601 nM in assay [3] (L. donovani axenic amastigotes) and 147 nM in assay [4].
In the same order, the values of `CC(C)OC(=O)Nc1cnc2nc(-c3cc(NC4=NCC(C)(C)O4)ccc3F)cn2c1` [Compound 503] are 26600 nM, 36700 nM, greater than 25000 nM and greater than 20000 nM.
